We go through one substance from patent publication US20250177481A1, “SCO-spondin-derived polypeptides for enhancing synaptic transmission” (AXOLTIS PHARMA, priority 2021, published 2025).

The test system of assay [1] is scopolamine-induced spatial short-term working memory deficits in mice. The assay can be described thus: Y-maze spontaneous alternation in the scopolamine mouse model of amnesia. It is filed as in vivo, Swiss mice. On the procedure:
Male Swiss mice, weighing 30-35 g, from JANVIER (Saint Berthevin, France), were housed in groups with access to food and water ad libitum, except during behavioral experiments. They were kept in a temperature and humidity-controlled animal facility on a 12 h/12 h light/dark cycle (lights off at 07:[…]). Mice were numbered by marking their tail with permanent markers. All animal procedures were conducted in strict adherence to the European Union directive of Sep. 22, 2010 (2010/63/UE). In each cage (n=6 per cage), treatment regimen was the same. Animals were tested in a random and blind manner.
Donepezil (DPZ) used as positive control was administered per os at a dose of 1 mg/kg once 1 h before the YM test.
Scopolamine was administered at a dose of 0.5 mg/kg by subcutaneous injection 30 minutes before the YM session.
After administration of compounds at different timepoints all animals were tested for spontaneous alternation performance in the YM, an index of spatial working memory. The YM was designed according to Itoh and collaborators (1993) and Hiramatsu and Inoue (1999) and is made of grey polyvinylchloride. Each arm is 40-cm long, 13-cm high, 3-cm wide at the bottom, 10-cm wide at the top, and converging at an equal angle. Each mouse was placed at the end of one arm and allowed to move freely through the maze during an 8-min session. The series of arm entries, including possible returns into the same arm, were checked visually. An alternation was defined as entries into all three arms on consecutive occasions. The number of maximum alternations is therefore the total number of arm entries minus two and the percentage of alternation was calculated as (actual alternations/maximum alternations)×100. Parameters included the percentage of alternation, called memory index, and total number of arm entries, called exploration index (Maurice et al., 1996, 1988; Meunier et al., 2006; Villard et al., 2009, 2011).
Animals showing an extreme behavior (alternation percentage <20% or >90% or number of arm entries <10) would have been discarded from the calculation. No animal was discarded accordingly.

The subject of assay [2] is Schaffer collateral-CA1 synaptic transmission in mouse hippocampal slices after OGD. In words: fEPSP recovery after OGD in hippocampal slices, treatment from the end of OGD or during recovery plateau (Example 8). It is filed as cell-based, C57Bl6/J mice. The following applies: for averaged normalized f-EPSP slope: NX218 250 μg/mL from the end of OGD, n=10 slices. On the procedure: Two extra slices were also be recorded to evaluate a possible curative capacity of NX218 against hypoxia.
Animals: see Example 7. In total, 10 mice were used in this study. An additional mouse was used to obtain two extra slices for preliminary recordings (“test slices)”.
Mice brain slice preparation: see Example 7
Conditions of Example 7 are used, except:
Measurements of evoked field excitatory postsynaptic potential (fEPSP) recovery after OGD were continued for 120 min from TO (OGD initiation). Two “test slices” were also done according to the experimental design described above.
Oxygen-glucose deprivation: see Example 7. In this study, the mean OGD duration was 10.6±1.0 min. Data processing and statistical analysis: see Example 7.

Several values for one entry are separate records, joined by “and”; a condition that tells them apart may be missing. Identical values can stand only once. Positions of bridges follow the written chain, without caps; N, C: chain ends. No end group written: not given here.

As to “W-S-G-W-S-S-C-S-R-S-C-G [NX218] (WSGWSSCSRSCG; disulfide 7-11 (inferred))”, the “effect on scopolamine-induced spatial short-term working memory impairments (Y-maze)” value in assay [1] (2.5 mg/kg i.p. (lowest tested dose) 24 h before the test) is “efficacy was already demonstrated”; in assay [1] (5 mg/kg i.p. 2 h before the test, data not shown), “only partial”; in assay [1] (5 mg/kg i.p. 24 h before the test, data not shown), “complete reversal effect”; in assay [1] (5 mg/kg i.p. 48 h before the test, data not shown), “partially blocked”; in assay [1] (10 mg/kg i.p. 48 h before the test, data not shown), “completely counteracted”; in assay [1] (15 mg/kg i.p. once 48 h before the test, data not shown), “partially blocked”. In addition, the “dose with maximum effect on scopolamine-induced memory impairments (Y-maze)” value in assay [1] (i.p. once 24 h before the test, bell-shaped dose-response curve) is listed as 10 mg/kg. For the same substance, the “spontaneous alternance in Y-maze” value in assay [1] (scopolamine + 10 mg/kg i.p. 24 h before test, scopolamine alone 45, control 70, n=6, 10 mg/kg) came out at 71%. Moreover, the “averaged normalized f-EPSP slope” value was 25.758 % of baseline in assay [2] (0-30 min after start of OGD, vehicle 28.497); 52.556 % of baseline in assay [2] (30-60 min after start of OGD, vehicle 53.456); 74.616 % of baseline in assay [2] (60-90 min after start of OGD, vehicle 68.774); 88.0±1.9 % of baseline and 88.046 % of baseline in assay [2] (90-120 min after start of OGD, vehicle 77.110); 90.3±2.7 % of baseline and 90.340 % of baseline in assay [2] (last 10 min (of 120 min) after start of OGD, vehicle 79.319). Besides, the “shape of the f-EPSP recovery phase following OGD (curative effect)” value in assay [2] (NX218 250 μg/mL applied during recovery plateau, T=60 min or T=70 min after OGD initiation, preliminary, n=1 per timepoint) is “rising further toward baseline”.
